Paper PMC8537897, “Design, Synthesis and Biological Evaluation of Aromatase Inhibitors Based on Sulfonates and Sulfonamides of Resveratrol” (Pharmaceuticals, 2021)
Where two headings read alike, the source gives them in different places.

Tests used:
[1] = molecular target: T1, human aromatase (Homo sapiens, UniProt P11511); test: Aromatase inhibition, fluorimetric assay kit (Aromatase-CYP19A Inhibitor Screening kit, BioVision); assay type: biochemical
T1 construct: purchased BioVision, Milpitas, CA, USA
T1 sequence (P11511 1-503): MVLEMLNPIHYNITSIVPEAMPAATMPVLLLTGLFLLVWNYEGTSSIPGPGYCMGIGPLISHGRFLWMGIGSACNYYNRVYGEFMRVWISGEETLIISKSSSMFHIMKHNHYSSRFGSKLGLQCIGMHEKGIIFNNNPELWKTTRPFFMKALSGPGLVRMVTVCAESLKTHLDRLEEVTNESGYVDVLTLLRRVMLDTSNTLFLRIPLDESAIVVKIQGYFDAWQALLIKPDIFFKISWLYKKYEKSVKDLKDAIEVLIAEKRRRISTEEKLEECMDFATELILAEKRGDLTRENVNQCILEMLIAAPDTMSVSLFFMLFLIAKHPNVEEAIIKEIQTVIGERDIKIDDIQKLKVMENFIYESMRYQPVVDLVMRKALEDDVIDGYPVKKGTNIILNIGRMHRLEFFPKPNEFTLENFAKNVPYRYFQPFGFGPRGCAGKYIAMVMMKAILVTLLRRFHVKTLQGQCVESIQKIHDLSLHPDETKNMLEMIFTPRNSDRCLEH
Description: The activity was measured each minute for 60 min and the value obtained for each compound after 10 min was chosen to calculate the percentage of the aromatase inhibition.
The aromatase inhibitory activity was determined using a commercial fluorimetric assay kit (Aromatase-CYP19A Inhibitor Screening kit, BioVision, Milpitas, CA, USA), as reported elsewhere. The assay utilizes a fluorogenic aromatase substrate that is converted into a highly fluorescent metabolite detected in the visible range (Ex/Em 488/527 nm). […] During the incubation, the Aromatase Substrate/NADP+ mixture was prepared, and the reaction was started by adding 30 µL of this solution to each well (aside from the background control), reaching a final reaction volume of 100 µL/well. The fluorescence emission (527 nm) was measured immediately (within 1 min) by means of a fluorometer equipped with a 488 nm filter (GloMax®-Multi Detection System, Promega, Madison, WI, USA) and afterwards monitored for 60 min. […] The assay was performed in the same experimental conditions used for the initial screening of compounds. Dose–response curves were fitted with GraphPad Prism 5.0 (GraphPad Software, San Diego, CA, USA).

[2] = tested on: MCF7 breast cancer cell line; test: Cell metabolic activity / viability (MTT assay) on MCF7; assay type: cell-based, human; conditions: for IC50: MTT, tested 0 to 500 µM;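 on all read-outs here: MTT optical density read-out in human MCF7 cells, normalised to DMSO vehicle-treated cells as 100%, with IC50 derived from fitted concentration–response curves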
Description: Cell metabolic activity of HFF-1 and MCF7 cells was assessed by MTT (3-(4,5-Dimethylthiazol-2-yl)-2,5-Diphenyltetrazolium Bromide) test (Sigma Aldrich, Milan, Italy). […] After the established exposure times, cells were incubated with MTT (0.5 mg/mL) and the optical density was measured as reported elsewhere [63]. Results were expressed as the percentage of cells in the presence of vehicle (DMSO) set as 100% and each experiment was performed in triplicate (n = 3). Concentration–response curves and IC50 were fitted and calculated with GraphPad Prism 5.0 (GraphPad Software, San Diego, CA, USA).

[3] = tested on: normal human skin fibroblast (HFF-1); test: Cell metabolic activity (MTT assay) on HFF-1; assay type: cell-based
Description: The compounds were then biologically characterized in terms of cytotoxicity occurrence (LDH released) on MCF7 cells. […] After 24 h of treatment, a dose-dependent decrease in cell metabolic activity can be registered for all the compounds with respect to DMSO alone. […] Similar results were obtained also after 72 h of treatment.
Human skin fibroblasts (HFF-1, CVCL_3285) and human breast cancer MCF7 (HTB-22™, CVCL_0031) were purchased from ATCC and maintained in Dulbecco’s modified Eagle’s medium (DMEM) high glucose (EuroClone, Milan, Italy) supplemented with 10% of fetal bovine serum (FBS) and 1% of penicillin/streptomycin (Gibco—Thermo Fisher Scientific, MD, USA).
Cell metabolic activity of HFF-1 and MCF7 cells was assessed by MTT (3-(4,5-Dimethylthiazol-2-yl)-2,5-Diphenyltetrazolium Bromide) test (Sigma Aldrich, Milan, Italy). […] After the established exposure times, cells were incubated with MTT (0.5 mg/mL) and the optical density was measured as reported elsewhere. Results were expressed as the percentage of cells in the presence of vehicle (DMSO) set as 100% and each experiment was performed in triplicate (n = 3). Concentration–response curves and IC50 were fitted and calculated with GraphPad Prism 5.0 (GraphPad Software, San Diego, CA, USA).

[4] = tested on: MCF7 cells; test: Cytotoxicity test (lactate dehydrogenase release); assay type: cell-based, human; conditions: 24 h
Description: To assess whether the decrease in metabolic activity is a consequence of cytotoxic occurrence in the presence of compounds 1b, 1c, and 1j, lactate dehydrogenase (LDH) released from MCF7 was measured in response to loading concentrations of 0–250 µM after a 24 h exposure. […] It is, therefore, plausible to assume that all tested compounds exert their anti-proliferative effect on MCF7 cells through cytotoxic induction and 1c is the most promising compound, being active already at lower doses.
MCF7 cells were seeded and stimulated as previously described for the MTT test. After the exposure time, cell supernatants were collected, centrifuged at 450× g for 4 min, and stored on ice. In order to quantify the cytotoxicity of loading concentrations of compounds 1b, 1c, and 1j (0–250 µM), the CytoTox 96® Non-Radioactive Cytotoxicity Assay (Promega Corporation, Madison, WI, USA) was performed as previously reported. The results were normalized on MTT absorbances and expressed as fold increases on the LDH released by cultures in the presence of vehicle (DMSO) set as 1.

[5] = tested on: MCF7 cells; test: Hematoxylin/eosin staining; assay type: cell-based, human; conditions: MCF7, 50 µM, 72 h, vs DMSO
Description: The effectiveness on MCF7 cells of compound 1c over the other compounds is confirmed by the hematoxylin/eosin staining (H&E) performed after 72 h of treatment at 50 µM. […] At a higher magnification (panels C and D), MCF7 cells show chromatin condensation (green arrows), as a typical sign of the initiation of cell death.
MCF7 cells were seeded (7 × 10^4 cells/well) in well glasses (Millicell® EZ slide, Merck Millipore, Burlington, MA, USA). After 24 h from seeding, cells were exposed to compound 1c at 50 µM for 72 h. Next, supernatants were removed, and cells were washed twice with PBS with calcium and magnesium (Euro Clone, Milan, Italy). MCF7 cells were fixed in the presence of p-formaldehyde 4% and stained with hematoxylin/eosin as reported elsewhere.

Cc1ccc(S(=O)(=O)Oc2ccc(/C=C/c3ccccc3)cc2)cc1[N+](=O)[O-] [1c, 4-[(E)-2-Phenylvinyl]phenyl 4-methyl-3-nitrobenzenesulfonate]
inhibition at 1 µM [1]: 91% | Potency in inhibiting aromatase relative to RSV ([1]; compared to RSV): twentyfold more potent than RSV | IC50 ([1]; tested at concentrations from 0.01 to 100 μM, mean of triplicate determinations): 3.17 µM | IC50 ([2]; Homo sapiens, MCF7, 24 h, 24 h, read-out: MCF7 Cells IC50 24 h): 29.2 µM | IC50 ([2]; Homo sapiens, MCF7, 72 h, 72 h, read-out: MCF7 Cells IC50 72 h): 40 µM | Viability (% of control) - 24 h ([2]; MCF7, 10 µM, 24 h): 85.23 ± 1.29 % of control | Viability (% of control) - 72 h ([2]; MCF7, 10 µM, 72 h): 96.62 ± 6.99 % of control | Viability (% of control) - 24 h ([2]; MCF7, 25 µM, 24 h): 73.08 ± 2.67 % of control | Viability (% of control) - 72 h ([2]; MCF7, 25 µM, 72 h): 91.88 ± 5.31 % of control | Viability (% of control) - 24 h ([2]; MCF7, 50 µM, 24 h): 37.39 ± 0.66 % of control | Metabolically active cells ([2]; MCF7, 50 µM, 24 h, DMSO alone = 100%): around 60% | Viability (% of control) - 72 h ([2]; MCF7, 50 µM, 72 h): 46.19 ± 1.67 % of control | Viability (% of control) - 24 h ([2]; MCF7, 100 µM, 24 h): 36.17 ± 1.56 % of control | Viability (% of control) - 72 h ([2]; MCF7, 100 µM, 72 h): 35.22 ± 2.21 % of control | Viability (% of control) - 24 h ([2]; MCF7, 250 µM, 24 h): 38.64 ± 1.23 % of control | Viability (% of control) - 72 h ([2]; MCF7, 250 µM, 72 h): 38.30 ± 4.07 % of control | Viability (% of control) - 24 h ([2]; MCF7, 500 µM, 24 h): 34.30 ± 1.43 % of control | Viability (% of control) - 72 h ([2]; MCF7, 500 µM, 72 h): 15.08 ± 0.67 % of control | IC50 ([2]; 24 h, read-out: MCF7 Cells IC50 24 h): 29.2 ± 1.9 µM | IC50 ([2]; 72 h, read-out: MCF7 Cells IC50 72 h): 39.9 ± 2.1 µM | HFF-1 viability (in words) ([3]; 0–250 µM, 24 and 72 h): significant reduction in viability only at the maximum concentration and after 72 h of treatment | Selectivity index (SI) over normal fibroblasts ([3]; HFF-1 vs MCF7, after 24 h): 1.82 | LDH release, dose dependence (in words) ([4]; MCF7, 0–250 µM): raises only at the highest concentration administered (250 µM) | LDH released, fold vs vehicle (DMSO) set as 1 ([4]; MCF7, 50 µM): three folds more | LDH released, fold vs vehicle (DMSO) set as 1 ([4]; MCF7, 250 µM): almost five folds more | Cell number by H&E staining (in words) [5]: cell number is dramatically decreased
